Laboratory results reported in article PMC4072508, “Genome-Wide Prediction and Validation of Peptides That Bind Human Prosurvival Bcl-2 Proteins” (PLoS Computational Biology, 2014).
Values joined by “and” are separate entries in the source; they are usually repeats but may differ in a detail not shown here. Equal entries are not always repeated. Where two headings read alike, the source gives them in different places. Residues, ends and D or L forms follow the SMILES beside them. No end group written: not given here.

How the values were obtained:
Mcl-1 [1] = target: T1, Mcl-1 (Homo sapiens, UniProt Q07820); assay: Fluorescence polarization direct binding
T1 construct: myc-Mcl-1 SPOT array & FP; made in house
T1 sequence (Q07820 with tags, fused parts or gaps): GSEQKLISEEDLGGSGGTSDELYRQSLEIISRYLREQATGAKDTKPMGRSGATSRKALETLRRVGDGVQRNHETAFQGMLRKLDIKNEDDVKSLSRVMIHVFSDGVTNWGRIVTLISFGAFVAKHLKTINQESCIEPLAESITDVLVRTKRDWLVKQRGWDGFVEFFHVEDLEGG
Method: (§1) Peptides were purified by reverse-phase HPLC using a C18 column and a linear water/acetonitrile gradient. We re-analyzed the purified peptide by mass spectrometry if there was not a single well-defined peak in HPLC chromatogram.
(§2) Fluorescence polarization (FP) assays were done at 25°C in assay buffer (20 mM NaPO4, 50 mM NaCl, 1 mM EDTA, 0.001% Triton X (v/v), pH 7.8). […] For all FP experiments, the total well volume was 120 µl. […] Anisotropy was measured using a Spectramax M5 plate reader from Molecular Devices.
(§3) Direct binding curves were fit using Pylab/Scipy/Optimize to a single-site binding model utilized previously.
(§4) ^1Best-fit KD values determined by combining all replicate titration curves and fitting to a direct binding model (see Methods). […] Values with an X followed by a number indicate the highest concentration (the number, in nM) for which signal was measured yet no binding was detected.

Bcl-2 = target: T2, Bcl-2 (Homo sapiens, UniProt P10415, DEL53-91); assay: Fluorescence polarization direct binding
T2 construct: myc- Bcl-2 FP; made in house
T2 sequence (P10415 with tags, fused parts or gaps DEL53-91): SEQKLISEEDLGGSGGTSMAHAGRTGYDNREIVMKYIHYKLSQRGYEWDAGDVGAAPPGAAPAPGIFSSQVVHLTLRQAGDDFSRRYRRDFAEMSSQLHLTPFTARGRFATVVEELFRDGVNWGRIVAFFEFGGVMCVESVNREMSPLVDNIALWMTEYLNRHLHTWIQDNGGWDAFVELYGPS
Method: as §1, §2, §3, §4

Bfl-1 = target: T3, Bfl-1 (Homo sapiens, UniProt Q16548); assay: Fluorescence polarization direct binding
T3 construct: myc- Bfl-1 SPOT array & FP; made in house
T3 sequence (Q16548 with tags, fused parts or gaps): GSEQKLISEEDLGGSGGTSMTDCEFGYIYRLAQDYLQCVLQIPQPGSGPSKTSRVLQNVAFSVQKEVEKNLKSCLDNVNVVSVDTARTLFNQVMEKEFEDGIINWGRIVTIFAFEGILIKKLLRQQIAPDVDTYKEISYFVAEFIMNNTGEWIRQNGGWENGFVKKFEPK
Method: as §1, §2, §3, §4

Bcl-w = target: T4, Bcl-w (Homo sapiens, UniProt Q92843, Q133R); assay: Fluorescence polarization direct binding
T4 construct: myc-Bcl-w SPOT array & FP; made in house
T4 sequence (Q92843 with tags, fused parts or gaps Q133R): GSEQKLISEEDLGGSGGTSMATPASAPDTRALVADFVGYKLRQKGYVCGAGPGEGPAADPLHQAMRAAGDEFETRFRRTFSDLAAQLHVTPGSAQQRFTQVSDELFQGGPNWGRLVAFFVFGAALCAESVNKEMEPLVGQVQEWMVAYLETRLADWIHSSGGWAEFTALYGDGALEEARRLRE
Method: as §1, §2, §3, §4

Bcl-xL = target: T5, Bcl-xL (Homo sapiens, UniProt Q07817); assay: Fluorescence polarization direct binding
T5 construct: myc-Bcl-xL SPOT array & FP; made in house
T5 sequence (Q07817 with tags, fused parts or gaps): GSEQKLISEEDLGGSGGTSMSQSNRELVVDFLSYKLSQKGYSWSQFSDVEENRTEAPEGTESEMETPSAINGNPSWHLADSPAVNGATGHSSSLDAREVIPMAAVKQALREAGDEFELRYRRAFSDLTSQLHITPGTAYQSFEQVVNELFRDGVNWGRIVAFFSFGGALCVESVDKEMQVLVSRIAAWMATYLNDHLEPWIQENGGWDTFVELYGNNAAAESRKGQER
Method: as §1, §2, §3, §4

Mcl-1 [2] = target: T1, Mcl-1; conditions: read-out: Binder class, Mcl-1, cited from earlier work
Source text: Negative control mutatio ...

[3] = Binder class, Mcl-1, benchmark classification of peptides newly characterized in this study
[4] = FP direct binding, 10 nM FAM-labeled peptide, receptor titrated, 25°C, pH 7.8, fit of all replicate titrations, X+number in a cell = highest concentration (nM) measured with no binding detected, given here as >, SPNS1 fit to raw fluorescence
[5] = FP direct binding, 10 nM FAM-labeled peptide, receptor titrated, 25°C, pH 7.8, fit of all replicate titrations, X+number in a cell = highest concentration (nM) measured with no binding detected, given here as >, SPNS1 fit to raw fluorescence, read-out: Best-fit KD, Bcl-2
[6] = benchmark classification of peptides newly characterized in this study, read-out: Binder class, Bcl-2
[7] = FP direct binding, 10 nM FAM-labeled peptide, receptor titrated, 25°C, pH 7.8, fit of all replicate titrations, X+number in a cell = highest concentration (nM) measured with no binding detected, given here as >, SPNS1 fit to raw fluorescence, read-out: Best-fit KD, Bfl-1
[8] = benchmark classification of peptides newly characterized in this study, read-out: Binder class, Bfl-1
[9] = FP direct binding, 10 nM FAM-labeled peptide, receptor titrated, 25°C, pH 7.8, fit of all replicate titrations, X+number in a cell = highest concentration (nM) measured with no binding detected, given here as >, SPNS1 fit to raw fluorescence, read-out: Best-fit KD, Bcl-w
[10] = benchmark classification of peptides newly characterized in this study, read-out: Binder class, Bcl-w
[11] = FP direct binding, 10 nM FAM-labeled peptide, receptor titrated, 25°C, pH 7.8, fit of all replicate titrations, X+number in a cell = highest concentration (nM) measured with no binding detected, given here as >, SPNS1 fit to raw fluorescence, read-out: Best-fit KD, Bcl-xL
[12] = benchmark classification of peptides newly characterized in this study, read-out: Binder class, Bcl-xL
[13] = S1 Bim variants, specific binding measured using yeast display, ref Dutta et al. (2010)
[14] = S2 Bim variants, ref Dutta et al. (2013)
[15] = natural BH3 peptides, interactions taken from literature

CC[C@H](C)[C@H](N)C(=O)N[C@H](C(=O)N[C@@H](CCC(N)=O)C(=O)N[C@@H](CCSC)C(=O)N[C@H](C(=O)N[C@H](C(=O)N[C@@H](CCC(=O)O)C(=O)N[C@@H](CC(C)C)C(=O)N[C@@H](CC(C)C)C(=O)N[C@@H](CCCCN)C(=O)N[C@@H](CCCNC(=N)N)C(=O)N[C@H](C(=O)NCC(=O)N[C@@H](CC(=O)O)C(=O)N[C@@H](CCC(N)=O)C(=O)N[C@@H](Cc1c[nH]c2ccccc12)C(=O)N[C@@H](CCC(=O)O)C(=O)N[C@@H](CCC(=O)O)C(=O)N[C@@H](CCC(=O)O)C(=O)N[C@@H](CCC(N)=O)C(=O)N[C@@H](CO)C(=O)N[C@@H](CC(C)C)C(=O)N[C@@H](C)C(N)=O)C(C)C)C(C)C)[C@@H](C)CC)[C@@H](C)CC [C6orf222]
Kd (Mcl-1 [1]; [3]): < 1000 nM
Kd (Mcl-1 [1]; [4]): < 30 nM and 23 nM
Kd (Bcl-2; [5]): < 30 nM and 0.3 nM
Kd (Bcl-2; [6]): < 1000 nM
Kd (Bfl-1; [7]): < 30 nM and 1 nM
Kd (Bfl-1; [8]): < 1000 nM
Kd (Bcl-w; [9]): < 30 nM and 13 nM
Kd (Bcl-w; [10]): < 1000 nM

CC[C@H](C)[C@H](NC(=O)[C@@H](NC(=O)[C@H](CCSC)NC(=O)CNC(=O)[C@H](CCCNC(=N)N)NC(=O)[C@H](CO)NC(=O)[C@H](CCC(N)=O)NC(=O)[C@H](CC(C)C)NC(=O)[C@H](CC(C)C)NC(=O)[C@H](CO)NC(=O)CNC(=O)[C@H](CS)NC(=O)[C@@H](NC(=O)[C@H](CC(=O)O)NC(=O)[C@H](CCCNC(=N)N)NC(=O)[C@H](CCSC)NC(=O)[C@H](CC(C)C)NC(=O)[C@H](CCCCN)NC(=O)[C@H](CO)NC(=O)[C@@H](NC(=O)[C@H](CS)NC(=O)[C@H](CO)NC(=O)[C@H](CC(C)C)NC(=O)[C@H](CCC(N)=O)NC(=O)[C@H](CS)NC(=O)[C@@H](N)CC(C)C)C(C)C)C(C)C)C(C)C)C(N)=O [FBXO30] (H-LCQLSCVSKLMRDVCGSLLQSRGMVI-NH2)
Kd (Mcl-1 [1]; [3]): 1000 to 10000 nM
Kd (Mcl-1 [1]; [4]): > 10000 nM
Kd (Bcl-2; [5]): 2560 nM
Kd (Bcl-xL; [11]): > 10000 nM
Kd (Bfl-1; [7]): > 10000 nM
Kd (Bcl-w; [9]): 3280 nM

CC[C@H](C)[C@H](NC(=O)[C@H](CCC(=O)O)NC(=O)[C@H](C)NC(=O)[C@H](CO)NC(=O)[C@H](Cc1ccccc1)NC(=O)[C@H](CCC(N)=O)NC(=O)[C@H](CC(=O)O)NC(=O)[C@H](C)NC(=O)[C@H](CC(C)C)NC(=O)[C@H](Cc1c[nH]cn1)NC(=O)[C@H](CCCNC(=N)N)NC(=O)[C@H](CC(C)C)NC(=O)[C@H](CCC(=O)O)NC(=O)[C@H](CCC(N)=O)NC(=O)[C@H](C)NC(=O)[C@H](CCCCN)NC(=O)[C@@H]1CCCN1C(=O)[C@H](CCCNC(=N)N)NC(=O)[C@@H](NC(=O)[C@@H](N)CO)[C@@H](C)CC)C(=O)N[C@@H](C)C(=O)N[C@@H](CCCNC(=N)N)C(=O)N[C@@H](CCCNC(=N)N)C(N)=O [MCF2L]
Kd (Mcl-1 [1]; [3]): > 10000 nM
Kd (Mcl-1 [1]; [4]): > 4000 nM
Best-fit KD, Bcl-2 (Bcl-2; [4]): bound tightly
Kd (Bcl-2; [5]): 6 nM
Kd (Bcl-2; [6]): < 1000 nM
Best-fit KD, Bcl-xL (Bcl-xL; [4]): bound tightly
Kd (Bcl-xL; [11]): 4 nM
Kd (Bcl-xL; [12]): < 1000 nM
Kd (Bfl-1; [7]): > 4100 nM
Kd (Bfl-1; [8]): > 10000 nM
Best-fit KD, Bcl-w (Bcl-w; [4]): bound tightly
Kd (Bcl-w; [9]): 7 nM
Kd (Bcl-w; [10]): < 1000 nM

CC[C@H](C)[C@H](NC(=O)[C@H](CCC(N)=O)NC(=O)[C@H](C)NC(=O)[C@H](CC(C)C)NC(=O)[C@H](Cc1ccc(O)cc1)NC(=O)[C@H](CCCNC(=N)N)NC(=O)[C@H](CO)NC(=O)[C@H](CCC(=O)O)NC(=O)[C@@H]1CCCN1C(=O)[C@@H](NC(=O)[C@@H](NC(=O)[C@H](CCC(=O)O)NC(=O)[C@@H](NC(=O)[C@@H](N)CCCCN)[C@@H](C)CC)[C@@H](C)O)[C@@H](C)O)C(=O)NCC(=O)N[C@@H](CC(=O)O)C(=O)N[C@@H](CO)C(=O)N[C@H](C(=O)N[C@@H](CO)C(=O)N[C@@H](CC(C)C)C(=O)N[C@H](C(=O)N[C@@H](CS)C(=O)N[C@@H](CO)C(=O)N[C@H](C(=O)N[C@H](C(=O)NCC(N)=O)[C@@H](C)O)[C@@H](C)O)[C@@H](C)O)C(C)C [VCAM1]
Kd (Bcl-2; [5]): > 3050 nM
Kd (Bfl-1; [7]): > 3370 nM
Kd (Bcl-w; [9]): > 4350 nM

DARDYAVVLRKYADKIYSISMKH-NH2 [FOLH1]
Kd (Bcl-2; [5]): 70 nM
Kd (Bcl-2; [6]): > 10000 nM
Kd (Bcl-xL; [12]): < 1000 nM
Kd (Bfl-1; [7]): 1600 nM
Kd (Bfl-1; [8]): 1000 to 10000 nM
Kd (Bcl-w; [9]): 907 nM
Kd (Bcl-w; [10]): > 10000 nM

FIQSLAAMLKQYADKLEFMHILT-NH2 [CASP3]
Kd (Mcl-1 [1]; [3]): 1000 to 10000 nM
Kd (Bcl-2; [5]): 264 nM
Kd (Bcl-2; [6]): < 1000 nM
Kd (Bfl-1; [7]): 43 nM
Kd (Bfl-1; [8]): < 1000 nM
Kd (Bcl-w; [9]): 64 nM
Kd (Bcl-w; [10]): < 1000 nM

PEIWIAQEINRVGDEINAYYARR
Kd (Mcl-1 [2]; [13]): < 1000 nM

PEIWIAQEIRRIGEEYNAYYARR
Kd (Mcl-1 [2]; [13]): < 1000 nM

PEIWIAQELGRNGDEFNAYYARR
Kd (Mcl-1 [2]; [13]): > 10000 nM

PEIWIAQELQRDGDEYNAYYARR
Kd (Mcl-1 [2]; [13]): > 10000 nM

PEIWIAQELRRAGDVLNAYYARR
Kd (Mcl-1 [2]; [14]): < 1000 nM

PEIWIAQEVDRIGDEVNAYYARR
Kd (Mcl-1 [2]; [13]): < 1000 nM

PEIWIAQGLRRIGDTWNAYYARR
Kd (Mcl-1 [2]; [14]): < 1000 nM

PEIWLAQYLRRLGDQINAYYARR
Kd (Mcl-1 [2]; [14]): < 1000 nM

PEIWMAQVLRRFGDLLNAYYARR
Kd (Mcl-1 [2]; [14]): < 1000 nM

PEIWVAQEFGRAGDEFNAYYARR
Kd (Mcl-1 [2]; [13]): > 10000 nM

PEIWVAQEFGRNGDEFNAYYARR
Kd (Mcl-1 [2]; [13]): > 10000 nM

PEIWVAQEFKRFGDEYNAYYARR
Kd (Mcl-1 [2]; [13]): > 10000 nM

PEIWVAQEFKRYGDETNAYYARR
Kd (Mcl-1 [2]; [13]): > 10000 nM

PEIWVAQEFQRAGDEYNAYYARR
Kd (Mcl-1 [2]; [13]): > 10000 nM

PEIWVAQEFQRNGDEFNAYYARR
Kd (Mcl-1 [2]; [13]): > 10000 nM

PEIWVAQEFRRAGDEFNAYYARR
Kd (Mcl-1 [2]; [13]): > 10000 nM

PEIWVAQEIDRVGDEINAYYARR
Kd (Mcl-1 [2]; [13]): < 1000 nM

PEIWVAQEIERIGDEVNAYYARR
Kd (Mcl-1 [2]; [13]): < 1000 nM

RLAEVCAVLLRLGDELEMIRPSV (PGRLAEVCAVLLRLGDELEMIRPSVY) [Bok]
Kd (Mcl-1 [2]; [15]): < 1000 nM

WAREIGAQLRRMADDLNAQYERR (EQWAREIGAQLRRMADDLNAQYERRR) [Puma]
Kd (Mcl-1 [2]; [15]): < 1000 nM
